Experimental data reported in patent US10202349B2, “Asymmetric bis-acridines with antitumour activity and their uses” (POLITECHNIKA GDAŃSKA, priority 2015, dated 2019).
pEC50: −log10 of the molar value.

What was measured:
[1] = test system: DU-145; assay: Cytotoxic activity in vitro, SRB; assay type: cell-based, human
Experimental: (§1) Cytotoxic activity tests in-vitro. A measure of the cytotoxic activity of bis-acridines are the EC50 (concentration of studied compounds at which 50% inhibition of proliferation of tumorous is observed) of the evaluated compounds that inhibit the growth of 50% of cells in relation to a control. The cytotoxic activity of the compounds was determined using SRB, recommended by the US National Cancer Institute (USA). As the spectrum of 13 human origin neoplasms in bis-acridine screening studies, we used the following: HT 29 [CRC], HCT 116 [CRC], H 460 [lung cancer], MDA MB 231 [breast cancer], MCF-7 [breast cancer], UM UC3 [bladder cancer], PC 3 [prostate cancer], DU 145 [ prostate cancer], Panc-1 [pancreatic cancer], Mia Pa Ca 2 [pancreatic cancer], BXPC 3 [pancreatic cancer], AsPC1 [pancreatic cancer], Capan-2 [pancreatic cancer]. […] The DU-145 results were substantially a basis for selecting compounds and neoplasms for screening. The next neoplasms most sensitive to the cytotoxic activity of bis-acridines was the CRC HCT-116, as well as breast cancer MBA-MB-231. […] The cytotoxic activity of the remaining bis-acridines is significant or high (EC50 in the range from 1 to 0.04 μM). […] Panc-1, MiaPaCa-2 and Capan-2 are more sensitive, whereas for AsPC-1 and BxPC-3 this activity is at least an order of magnitude smaller.

[2] = test system: HCT-116; assay: Cytotoxic activity in vitro, SRB; assay type: cell-based, human
Experimental: as §1

[3] = test system: H-460; assay: Cytotoxic activity in vitro, SRB; assay type: cell-based, human
Experimental: as §1

[4] = test system: HT-29; assay: Cytotoxic activity in vitro, SRB; assay type: cell-based, human
Experimental: as §1

[5] = test system: MDA-MB-231; assay: Cytotoxic activity in vitro, SRB; assay type: cell-based, human
Experimental: as §1

[6] = test system: UM-UC-3; assay: Cytotoxic activity in vitro, SRB; assay type: cell-based, human
Experimental: as §1

[7] = test system: MCF-7; assay: Cytotoxic activity in vitro, SRB; assay type: cell-based, human
Experimental: as §1

[8] = test system: PANC 1; assay: Anti-neoplasmic activity against xenograft in hairless mice; assay type: in vivo; settings: for TGI [%] [100 − (ΔVT/ΔVC × 100]: series 30, i.v., day 52
Experimental: For this, we selected 26 bis-acridines, mainly on the basis of the cytotoxic activity. We performed 34 series of experiments evaluating the anti-neoplasmic activity on xenografts in hairless mice against eleven neoplasms of human origin from the determination of the cytotoxic activity of bis-acridines (table 4). The tumours were injected subcutaneously to hairless mice of 5-weeks, female Crl:Nu-Foxnlnu, at a rate of 5×10^6 cells per mouse. After attaining a tumour of about 100 mm^3 or 200 mm^3 in depending on the neoplasm and its take this was 8 or even 30 days, and began therapy. On the day therapy was initiated, we randomised the animals and divided them into groups. Test groups were from 6 to 8 animals, and controls had from 8 to 14 animals. Each compound was tested at three differentiated doses.
The preparations were administered intravenously (i.v.) twice weekly for 4 weeks (thrice weekly for rapidly growing neoplasms). In several series, we used intraperitoneally (i.p.) administration in the same scheme. […] The therapeutic efficacy of the tested formulations was evaluated by measuring tumour size (length and width measurements of the tumour on the basis of the calculated tumour volume). Tumours were measured twice weekly for a period of about 30 days for fast-growing neoplasms, as well as about 60 days for the slow-growing neoplasms. The tumour volume in the treated groups compared with the control group. On this basis, inhibition of tumour growth was calculated using the following formula: Tumour growth inhibition TGI [%]=100−(ΔVT/ΔVC×100) Where ΔVT—is mean the tumour volume in animals in the group treated at the given day of treatment, minus the mean tumour volume in animals at the date of commencement of therapy. ΔVC is mean tumour volume in animals in the control group on a given day of treatment minus the average tumour volume of animals on the date of commencement of therapy. The results of the tests of anti-neoplasmic activity conducted in xenografts of human-origin neoplasms in mice are shown in Table 5.
The result above was accepted only in the case that the dose administered in all animals or more than half of the animals that survived to the end of the experiment. In addition, the evaluation was the day that the administration of the preparation was already completed: for the fast-growing neoplasms (eg. HCT116) this was in the days from 15 to 26, while for slow-growing neoplasms (eg. Panc 1) on a day from 34 to 60. […] In addition, the maximum inhibition of neoplasms could be identified in the day, in which there were no factors that could change the value TGI value.
Such factors may include: a significant decrease in body weight, the appearance of observable toxaemia, excessive rate of tumour growth: tumours in excess of 2000 mm^3 and all animals alive on that day.

[9] = test system: MiaPaCa-2; assay: Cytotoxic activity in vitro, SRB; assay type: cell-based, human
Experimental: as §1

[10] = test system: PANC-1; assay: Cytotoxic activity in vitro, SRB; assay type: cell-based, human
Experimental: as §1

Compound | pEC50 [1] | pEC50 [2] | pEC50 [3] | pEC50 [4] | further results
Cc1ccc([N+](=O)[O-])c2c(NCCCN3CCN(CCCNc4ccc5nnn6c7ccc(O)cc7c(=O)c4c56)CC3)c3ccccc3nc12 [C-2057, 1-[3-(8-hydroxy-6H-[1,2,3]triazolo[4,5,1-de]-acridin-6-on-5-yl)aminopropyl]-4-[3′-(4′-methyl-1′-nitroacridin-1-yl)-aminopropyl]piperazine] | 7.47 | – | – | – | –
Cc1ccc([N+](=O)[O-])c2c(NCCNCCNCCNc3ccc(C)c4[nH]c5ccccc5c(=O)c34)c3ccccc3nc12 [C-2024, 9-[N-(4-methyl-9(10H)acridono-1-yl)-aminoethylaminoethylamino-ethylamino]-4′-methyl-1′-nitroacridine] | 6.38 | 5.90 | 6.43 | 5.93 | –
O=c1c2ccccc2n2nnc3ccc(NCCCN4CCN(CCCNc5c6ccccc6nc6cccc([N+](=O)[O-])c56)CC4)c1c32 [C-2048, 1-[3-(6H-[1,2,3]triazolo[4,5,1-de]-acridin-6-on-5-yl)aminopropyl]-4-[3′-(1′-nitroacridin-1-yl)-aminopropyl]piperazine] | 7.66 | 7.39 | – | 6.82 | pEC50 [5]: 7.48; pEC50 [6]: 6.92; pEC50 [7]: 6.99; TGI [%] [100 − (ΔVT/ΔVC × 100] ([8]; single 4 mg/kg, total 24 mg/kg): 86%
Cc1ccc([N+](=O)[O-])c2c(NCCCN3CCN(CCCNc4ccc([N+](=O)[O-])c5[nH]c6ccc(O)cc6c(=O)c45)CC3)c3ccccc3nc12 [C-2020] | 7.21 | – | 7.33 | 6.63 | –
Cc1ccc(NCCCNCCCNc2c3ccccc3nc3cccc([N+](=O)[O-])c23)c2c(=O)c3ccccc3[nH]c12 [C-2038, 9-{N-[(4-methyl-9(10H)-acridono-1-yl)aminopropyl]propylamino}-1′-nitroacridine] | 6.74 | – | – | – | pEC50 [9]: 6.55; pEC50 [7]: 6.64; pEC50 [10]: 6.42
O=c1c2cc(O)ccc2n2nnc3ccc(NCCCN4CCN(CCCNc5c6ccccc6nc6cccc([N+](=O)[O-])c56)CC4)c1c32 [C-2047, 1-[3-(8-hydroxy-6H-[1,2,3]triazolo[4,5,1-de]-acridin-6-on-5-yl)aminopropyl]-4-[3′-(1′-nitroacridin-1-yl)-aminopropyl]piperazine] | 7.77 | 7.77 | 7.44 | 7.54 | –
CN(CCCNc1c2ccccc2nc2cccc([N+](=O)[O-])c12)CCCNc1ccc2nnn3c4ccccc4c(=O)c1c23 [C-2060, 9-{N-5-[(6H-[1,2,3]triazolo[4,5,1-de]-acridin-6-on-5-yl)aminopropyl]-N-methylaminopropylamino}-1′-nitroacridine] | 6.82 | – | 6.73 | – | –
Cc1ccc([N+](=O)[O-])c2c(NCCNCCNCCNc3ccc([N+](=O)[O-])c4[nH]c5ccccc5c(=O)c34)c3ccccc3nc12 [C-2032, 9-[N-(4-nitro-9(10H)acridono-1-yl)-aminoethylaminoethylamino-ethylamino]-4′-methyl-1′-nitroacridine] | 5.77 | 6.07 | – | – | pEC50 [6]: 6.14; pEC50 [10]: 5.88
CN(CCCNc1c2ccccc2nc2cccc([N+](=O)[O-])c12)CCCNc1ccc2nnn3c4ccc(O)cc4c(=O)c1c23 [C-2052, 9-{N-[(8-hydroxy-6H-[1,2,3]triazolo[4,5,1-de]-acridin-6-on-5-yl)aminopropyl]-N-methylaminopropylamino}-1′-nitroacridine] | 7.55 | – | 7.13 | – | pEC50 [6]: 6.81; pEC50 [7]: 6.66; activity against Panc-1 pancreatic cancer ([8]; in words, scale of b125: TGI≥80% as high activity): high level of activity; TGI [%] [100 − (ΔVT/ΔVC × 100] ([8]; single 1 mg/kg, total 8 mg/kg): 39%
Cc1ccc([N+](=O)[O-])c2c(NCCCNCCNCCCNc3ccc([N+](=O)[O-])c4[nH]c5ccccc5c(=O)c34)c3ccccc3nc12 [C-2039, 9-[N-(4-nitro-9(10H)acridono-1-yl)-aminopropylaminoethylamino-propylamino]-4′-methyl-1′-nitroacridine] | 7.06 | – | – | – | pEC50 [9]: 6.96; pEC50 [10]: 6.85
O=c1c2ccccc2n2nnc3ccc(NCCCNCCCNc4c5ccccc5nc5cccc([N+](=O)[O-])c45)c1c32 [C-2063, 9-{N-5-[(6H-[1,2,3]triazolo[4,5,1-de]-acridin-6-on-5-yl)aminopropyl]-aminopropylamino}-1′-nitroacridine] | 8.34 | – | 7.62 | – | –
Cc1ccc([N+](=O)[O-])c2c(NCCCN3CCN(CCCNc4ccc5nnn6c7ccccc7c(=O)c4c56)CC3)c3ccccc3nc12 [C-2058] | 7.38 | – | – | – | –
O=c1c2ccccc2[nH]c2c([N+](=O)[O-])ccc(NCCCNCCNCCCNc3c4ccccc4nc4cccc([N+](=O)[O-])c34)c12 [C-2040, 9-[N-(4-nitro-9(10H)acridono-1-yl)-aminopropylaminoethylamino-propylamino]-1′-nitroacridine] | 7.26 | – | – | – | pEC50 [9]: 7.34; pEC50 [10]: 7.22
Cc1ccc([N+](=O)[O-])c2c(NCCCN(C)CCCNc3ccc4nnn5c6ccc(O)cc6c(=O)c3c45)c3ccccc3nc12 [C-2056, 9-{N-5-[(8-hydroxy-6H-[1,2,3]triazolo[4,5,1-de]-acridin-6-on-5-yl)aminopropyl]-N-methylaminopropylamino}-4′-methyl-1′-nitroacridine] | 7.42 | – | – | – | –
Cc1ccc([N+](=O)[O-])c2c(NCCCN(C)CCCNc3ccc(C)c4[nH]c5ccccc5c(=O)c34)c3ccccc3nc12 [C-2023, 9-{N-[(4-methyl-9(10H)-acridono-1-yl)aminopropyl]-N-methylaminopropylamino}-4′-methyl-1′-nitroacridine] | 6.72 | 6.92 | 7.15 | 6.91 | –
Cc1ccc([N+](=O)[O-])c2c(NCCCN(C)CCCNc3ccc([N+](=O)[O-])c4[nH]c5ccc(O)cc5c(=O)c34)c3ccccc3nc12 [C-2019, 9-{N-[(7-hydroxy-4-nitro-9(10H)acridono-1-yl)aminopropyl]-N-methylaminopropylamino}-4′-methyl-1′-nitroacridine] | 7.14 | – | 7.34 | 6.70 | –
Cc1ccc([N+](=O)[O-])c2c(NCCCNCCCNc3ccc([N+](=O)[O-])c4[nH]c5ccc(O)cc5c(=O)c34)c3ccccc3nc12 [C-2021, 9-{N-[(7-hydroxy-4-nitro-9(10H)acridono-1-yl)aminopropyl]-aminopropylamino}-4′-methyl-1′-nitroacridine] | 7.11 | 7.06 | 7.14 | 6.89 | –
Cc1ccc([N+](=O)[O-])c2c(NCCNCCNc3ccc(C)c4[nH]c5ccccc5c(=O)c34)c3ccccc3nc12 [C-2016, 9-{N-[(4-methyl-9(10H)-acridono-1-yl)aminoethyl]ethylamino}-4′-methyl-1′-nitroacridine] | 6.22 | – | – | 6.38 | –
